Source: US4599352A, “Antineoplastic platinum (IV) complexes and compositions” (priority 1984, dated 1986)

Columns and labels:
[1] = test system: IP-Implanted L1210 Leukemia; test: Dose-response against IP-implanted L1210 leukemia, IP treatment Days 1, 5 and 9, 30-day test (Table 2); type: in vivo, CD2Fl male mice; conditions: for Optimal dose (dose producing best therapeutic response): day 1, 5 and 9 schedule
Procedure: (§1) Biological properties of the compounds of the present invention were determined following the protocol described in Cancer Chemotherapy Reports, Vol. 3, No. 3, 1972 which report is incorporated herein by reference.
(§2) This experiment (A8-00005 3LE31) was conducted at the Southern Research Institute, Birmingham, Ala. under the supervision of Dr. Daniel Griswold. The protocols were the same as those published previously (Geran et al., Cancer Chemotherapy Reports 3: No. 2, 1972 [Attachment 11]). 10^5 cells were implanted intraperitoneally in CD2Fl male mice on Day 0. Drug treatments were given intraperitoneally as single injections at the doses indicated on Days 1, 5 and 9 after tumor implantation. The diluent was saline except for NSC-271674 where 5% sodium bicarbonate was used. All drugs were prepared fresh on the day of injection, and all were administered in solution. Median survival times for both control and drug-treated mice were determined and expressed as a percentage (% T/C). Body weights were determined on Day 5 and expressed as a weight difference (body weight of the drug-treated animals minus that of the control animals in grams) (T-C). The diluent control animals lived a median of 8.4 days and gained 1.9 grams by Day 5 in this experiment. All animals, including Day 30 survivors, were used in the calculation of median survival times. The log10 change in tumor burden refers to the net log change in viable tumor cell population at the end of therapy (Rx) as compared to the start of therapy; e.g., a […] means that there was a […] and a 3 log change means there was a 1000-fold increase in tumor burden at the end of therapy. The tumor burden at the start of therapy was about 6.1×10^5 cells in this experiment.

IP L1210 = test: Activity against IP-implanted L1210 leukemia sensitive to cisplatin, 60 day test (Table 4); type: in vivo, Female CD2Fl mice
Procedure: as §1
Other known mechanisms of resistance for other classes of agents, such as gene amplification or target enzyme change or amplication, also need to be explored. The experiments summarized in Table 3 were conducted at the same time against both sublines using the same drug preparations. […] These experiments were repeated in a second laboratory as documented in Table 4. However, in these experiments the animals were held for 60 rather than 30 days to evaluate whether or not long-term survivors are produced after drug treatment in a more challenging setting.
as §2
These experiments (23-00081 3LE31 and 23-00003 3DP3l) were conducted concurrently at the Mason Research Institute, Worcester, MA under the supervision of Dr. William Cobb. See Table 4 for experimental details. The diluent control animals bearing L1210 leukemia lived a median of 8.3 days and gained 1.6 grams by Day 5. […] Female CD2Fl mice were used for these experiments.

[2] = test system: SC Implanted L1210 Leukemia; test: Activity against SC implanted L1210 leukemia following intravenous administration, once daily Days 1-5 (Table 5); type: in vivo, CD2Fl male mice; conditions: for Optimal Dose: IV once daily Days 1-5
Procedure: as §1
In another type of experiment the same platinum complexes were directly compared against the SC implanted L1210 following intravenous administration (Table 5).
This experiment (A8-00004 3LE32) was conducted at the Southern Research Institute, Birmingham, Ala. under the supervision of Dr. Daniel Griswold. The protocols were the same as those published previously (Attachment 11). 10^6 cells were implanted subcutaneously in CD2Fl male mice on Day 0. Drug treatments were given intravenously once daily at the doses indicated on Days 1-5 after tumor implantation. The dosage range tested included the highest and lowest doses indicated in the Table as well as intermediate values which were determined by multiplying each dose in turn by 0.5 starting with the highest dose. The diluent was saline except for NSC-271674 for which 5% sodium bicarbonate was used. All drugs were prepared fresh on the day of injection, and all were administered in solution. Median survival times for both control and drug-treated mice were determined and expressed as a percentage (% T/C). Body weights were determined on Day 5 and expressed as a weight difference (body weight of the drug-treated animals minus that of the control animals in grams) (T-C).

[Cl][Pt]1([Cl])([Cl])([Cl])[NH]C2CCCCC2[NH]1 (stereo not drawn) [trans (d, l), (d,l)-Tetrachloro-trans-1,2-cyclohexanediamine platinum (IV)]
30-Day Survivors/Total ([1]; 1 mg/kg/dose IP): 0/6 | Approx. Log10 Change in Tumor Burden at End of Rx ([1]; 1 mg/kg/dose IP): ~2.9 log10 | Body Weight Difference ([1]; 1 mg/kg/dose IP): -0.5 Grams | Median % T/C ([1]; 1 mg/kg/dose IP): 122% | 30-Day Survivors/Total ([1]; 2 mg/kg/dose IP): 0/6 | Approx. Log10 Change in Tumor Burden at End of Rx ([1]; 2 mg/kg/dose IP): ~2.5 log10 | Body Weight Difference ([1]; 2 mg/kg/dose IP): -1.5 Grams | Median % T/C ([1]; 2 mg/kg/dose IP): 146% | 30-Day Survivors/Total ([1]; 4 mg/kg/dose IP): 1/6 | Approx. Log10 Change in Tumor Burden at End of Rx ([1]; 4 mg/kg/dose IP): ~-0.5 log10 | Body Weight Difference ([1]; 4 mg/kg/dose IP): -1.5 Grams | Median % T/C ([1]; 4 mg/kg/dose IP): 202% | 30-Day Survivors/Total ([1]; 8 mg/kg/dose IP): 4/6 | Approx. Log10 Change in Tumor Burden at End of Rx ([1]; 8 mg/kg/dose IP): ~-5.7 log10 | Body Weight Difference ([1]; 8 mg/kg/dose IP): -1.2 Grams | Median % T/C ([1]; 8 mg/kg/dose IP): 357% | Body Weight Difference ([1]; 8 mg/kg/dose IP, listed as trans dl): less than -4 Grams | 30-Day Survivors/Total ([1]; 16 mg/kg/dose IP): 1/6 | Approx. Log10 Change in Tumor Burden at End of Rx ([1]; 16 mg/kg/dose IP): ~2.6 log10 | Body Weight Difference ([1]; 16 mg/kg/dose IP): -4.6 Grams | Median % T/C ([1]; 16 mg/kg/dose IP): 142% | Optimal dose (dose producing best therapeutic response) [1]: 8 mg/kg/injection | 60 Day Survivors/Total (IP L1210; 1 mg/kg/dose): 0/10 | Body Weight Difference (IP L1210; 1 mg/kg/dose): -0.8 Grams | Median % T/C (IP L1210; 1 mg/kg/dose): 144% | 60 Day Survivors/Total (IP L1210; 2 mg/kg/dose): 0/10 | Body Weight Difference (IP L1210; 2 mg/kg/dose): -1.2 Grams | Median % T/C (IP L1210; 2 mg/kg/dose): 180% | 60 Day Survivors/Total (IP L1210; 4 mg/kg/dose): 0/10 | Body Weight Difference (IP L1210; 4 mg/kg/dose): -1.5 Grams | Median % T/C (IP L1210; 4 mg/kg/dose): 274% | 60 Day Survivors/Total (IP L1210; 8 mg/kg/dose): 3/10 | Body Weight Difference (IP L1210; 8 mg/kg/dose): -3.2 Grams | Median % T/C (IP L1210; 8 mg/kg/dose): 178% | 60 Day Survivors/Total (IP L1210; 16 mg/kg/dose): 0/10 | Body Weight Difference (IP L1210; 16 mg/kg/dose): -5.9 Grams | Median % T/C (IP L1210; 16 mg/kg/dose): 89% | Optimal Dose [2]: 2.5 mg/kg/inj

N.N.[Cl][Pt][Cl] [Cisplatin, cis-diamminedichloroplatinum (II), reference compound]
30-Day Survivors/Total ([1]; 1.25 mg/kg/dose IP): 0/6 | Approx. Log10 Change in Tumor Burden at End of Rx ([1]; 1.25 mg/kg/dose IP): ~2.9 log10 | Body Weight Difference ([1]; 1.25 mg/kg/dose IP): -1.0 Grams | Median % T/C ([1]; 1.25 mg/kg/dose IP): 123% | 30-Day Survivors/Total ([1]; 5 mg/kg/dose IP): 0/6 | Approx. Log10 Change in Tumor Burden at End of Rx ([1]; 5 mg/kg/dose IP): ~2.4 log10 | Body Weight Difference ([1]; 5 mg/kg/dose IP): -1.4 Grams | Median % T/C ([1]; 5 mg/kg/dose IP): 152% | 30-Day Survivors/Total ([1]; 10 mg/kg/dose IP): 0/6 | Approx. Log10 Change in Tumor Burden at End of Rx ([1]; 10 mg/kg/dose IP): ~1.9 log10 | Body Weight Difference ([1]; 10 mg/kg/dose IP): -1.3 Grams | Median % T/C ([1]; 10 mg/kg/dose IP): 166% | 30-Day Survivors/Total ([1]; 20 mg/kg/dose IP): 3/6 | Approx. Log10 Change in Tumor Burden at End of Rx ([1]; 20 mg/kg/dose IP): ~-5.7 log10 | Body Weight Difference ([1]; 20 mg/kg/dose IP): -5.0 Grams | Median % T/C ([1]; 20 mg/kg/dose IP): 357% | Log reduction in tumor cell burden at the end of therapy ([1]; best dose): -5.7 log10 | Optimal dose (dose producing best therapeutic response) [1]: 20 mg/kg/injection | 60 Day Survivors/Total (IP L1210; 1.25 mg/kg/dose): 0/10 | Body Weight Difference (IP L1210; 1.25 mg/kg/dose): -0.6 Grams | Median % T/C (IP L1210; 1.25 mg/kg/dose): 127% | 60 Day Survivors/Total (IP L1210; 5 mg/kg/dose): 0/10 | Body Weight Difference (IP L1210; 5 mg/kg/dose): -2.4 Grams | Median % T/C (IP L1210; 5 mg/kg/dose): 240% | 60 Day Survivors/Total (IP L1210; 10 mg/kg/dose): 0/10 | Body Weight Difference (IP L1210; 10 mg/kg/dose): -5.1 Grams | Median % T/C (IP L1210; 10 mg/kg/dose): 107% | 60 Day Survivors/Total (IP L1210; 20 mg/kg/dose): 0/10 | Body Weight Difference (IP L1210; 20 mg/kg/dose): -5.8 Grams | Median % T/C (IP L1210; 20 mg/kg/dose): Toxic | Body Weight Difference ([2]; 5 mg/kg/inj IV): -5.7 Grams | Median % T/C ([2]; 5 mg/kg/inj IV): 138% | Median Survival Time ([2]; 5 mg/kg/inj IV): 14.3 days | Optimal Dose [2]: 5 mg/kg/inj
